Measured values reported in US20250197374A1, “WEE1 DEGRADING COMPOUNDS AND USES THEREOF” (BRISTOL-MYERS SQUIBB COMPANY, priority 2023, published 2025).

Assays:
Type in all cases: cell-based
WEE1 = molecular target: T1, WEE1 (Homo sapiens, UniProt P30291+Q96SW2); experiment: WEE1-ePL degradation assay (293T-LentiX, InCELL Hunter luminescence, 4 hr); settings: for DC50: LentiX-HEK293T cells expressing WEE1-ePL, 4 hr incubation, read-out: 293T-LentiX WEE1-ePL Degradation 4 hr EC50; for 293T-LentiX WEE1-ePL Degradation 4 hr YMin (%): lower limit of fit, % of DMSO control signal remaining
T1 construct: C-terminal ePL-tagged (DiscoverX, Fremont, CA) full-length WEE1 expression construct; expressed in transfected cells; host or cells: LentiX-HEK293T (Invitrogen), lentivirally transduced; the cells also over-express GSPT1-GN
Summary of the method: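 LentiX-HEK293T cells expressing C-terminally ePL-tagged full-length WEE1 plus non-degradable GSPT1-GN (G575N, N-terminal 158 aa truncated). Treated 4 h at 37 °C with a 10-point, 3-fold series from 1 or 10 µM, then read by InCELL Hunter luminescence. EC50 from four-parameter logistic fit, Ymax set by DMSO control.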

MKN45 cells = experiment: MKN45 cell proliferation assay (Cell-Titer-Glo, 120 hr); settings: for EC50: Homo sapiens, MKN-45, 120 h, read-out: MKN45 Cell Prolif. 120 hr EC50; for MKN45 Cell Prolif. 120 hr YMin (%): minimal percent of DMSO control observed
Summary of the method: (§1)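 MKN45 (400/well) and MDA-MB-231 (800/well) cells in RPMI with 10% FBS were exposed to 10-point half-log doses from 1 or 10 uM (0.1% DMSO) for 120 h at 37 °C. Viability was read by CellTiter-Glo luminescence. EC50 came from blank-subtracted, %DMSO four-parameter fits, with Ymin-obs as the lowest %DMSO observed.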

MDA-MB-231 cells = experiment: MDA-MB-231 cell proliferation assay (Cell-Titer-Glo, 120 hr); settings: for EC50: Homo sapiens, MDA-MB-231, 120 h, read-out: MDA-MB 231 Cell Prolif. 120 hr EC50; for MDA-MB 231 Cell Prolif. 120 hr YMin (%): minimal percent of DMSO control observed
Summary of the method: as §1

T1 sequence (P30291 whole entry): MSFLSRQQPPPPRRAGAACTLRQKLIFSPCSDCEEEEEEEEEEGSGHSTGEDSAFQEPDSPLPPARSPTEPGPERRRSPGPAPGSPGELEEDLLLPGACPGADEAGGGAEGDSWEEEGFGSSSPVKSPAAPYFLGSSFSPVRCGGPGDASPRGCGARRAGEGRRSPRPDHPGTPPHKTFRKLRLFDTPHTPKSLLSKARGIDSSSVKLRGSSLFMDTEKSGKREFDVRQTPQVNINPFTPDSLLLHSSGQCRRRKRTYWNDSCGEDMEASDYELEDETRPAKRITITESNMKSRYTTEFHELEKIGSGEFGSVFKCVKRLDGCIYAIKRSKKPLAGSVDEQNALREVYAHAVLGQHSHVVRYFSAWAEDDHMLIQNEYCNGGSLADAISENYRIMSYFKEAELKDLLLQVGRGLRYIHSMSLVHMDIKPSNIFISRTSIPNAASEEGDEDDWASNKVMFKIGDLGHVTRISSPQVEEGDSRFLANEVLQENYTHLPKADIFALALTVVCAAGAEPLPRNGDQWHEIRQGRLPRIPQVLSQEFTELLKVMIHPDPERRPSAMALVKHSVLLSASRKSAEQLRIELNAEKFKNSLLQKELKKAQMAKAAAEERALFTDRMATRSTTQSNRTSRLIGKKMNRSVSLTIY
T1 sequence (Q96SW2 whole entry): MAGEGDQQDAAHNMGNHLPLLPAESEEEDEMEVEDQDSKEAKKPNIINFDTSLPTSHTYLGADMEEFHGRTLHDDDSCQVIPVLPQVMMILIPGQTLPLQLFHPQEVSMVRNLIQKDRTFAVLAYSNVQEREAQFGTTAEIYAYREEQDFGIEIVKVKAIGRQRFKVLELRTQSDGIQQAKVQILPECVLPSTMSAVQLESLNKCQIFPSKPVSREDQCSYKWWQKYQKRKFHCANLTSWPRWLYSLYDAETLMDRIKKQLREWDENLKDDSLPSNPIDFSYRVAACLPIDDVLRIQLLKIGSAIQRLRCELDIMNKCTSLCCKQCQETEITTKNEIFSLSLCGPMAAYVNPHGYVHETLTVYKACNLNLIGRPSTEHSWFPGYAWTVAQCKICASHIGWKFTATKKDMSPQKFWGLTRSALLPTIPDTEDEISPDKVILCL
T1 sequence (Q16531 whole entry partner): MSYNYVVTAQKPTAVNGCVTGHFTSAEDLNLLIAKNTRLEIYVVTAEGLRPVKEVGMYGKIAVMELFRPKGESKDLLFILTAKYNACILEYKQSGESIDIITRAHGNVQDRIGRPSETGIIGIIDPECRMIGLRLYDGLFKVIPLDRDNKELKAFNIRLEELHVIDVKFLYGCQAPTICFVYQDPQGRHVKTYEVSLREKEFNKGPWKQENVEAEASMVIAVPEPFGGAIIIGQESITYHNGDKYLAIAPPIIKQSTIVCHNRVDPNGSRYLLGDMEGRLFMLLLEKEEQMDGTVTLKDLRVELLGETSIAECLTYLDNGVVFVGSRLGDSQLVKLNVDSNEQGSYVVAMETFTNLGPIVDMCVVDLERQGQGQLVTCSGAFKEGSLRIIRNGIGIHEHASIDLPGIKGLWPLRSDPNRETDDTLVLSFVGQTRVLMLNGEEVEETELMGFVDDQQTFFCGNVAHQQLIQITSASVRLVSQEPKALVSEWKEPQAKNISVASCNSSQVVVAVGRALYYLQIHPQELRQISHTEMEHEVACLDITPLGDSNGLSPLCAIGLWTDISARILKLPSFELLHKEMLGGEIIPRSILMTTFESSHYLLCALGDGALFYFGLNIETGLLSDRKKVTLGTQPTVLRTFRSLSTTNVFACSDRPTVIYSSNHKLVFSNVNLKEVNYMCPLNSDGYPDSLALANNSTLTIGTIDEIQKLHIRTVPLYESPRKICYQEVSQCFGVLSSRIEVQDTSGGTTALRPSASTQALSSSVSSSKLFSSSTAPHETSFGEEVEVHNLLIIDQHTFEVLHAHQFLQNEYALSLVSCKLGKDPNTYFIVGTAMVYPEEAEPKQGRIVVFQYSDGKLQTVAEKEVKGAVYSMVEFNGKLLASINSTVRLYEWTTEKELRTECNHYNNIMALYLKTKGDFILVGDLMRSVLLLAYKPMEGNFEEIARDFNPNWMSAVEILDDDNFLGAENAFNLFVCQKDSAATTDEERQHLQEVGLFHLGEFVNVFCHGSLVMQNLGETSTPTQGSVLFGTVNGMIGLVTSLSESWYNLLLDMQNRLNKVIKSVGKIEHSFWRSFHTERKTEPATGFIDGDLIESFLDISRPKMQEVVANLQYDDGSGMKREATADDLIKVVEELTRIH

SMILES | DC50 (WEE1) [nM] | 293T-LentiX WEE1-ePL Degradation 4 hr YMin (%) (WEE1) | EC50 (MKN45 cells) [nM] | MKN45 Cell Prolif. 120 hr YMin (%) (MKN45 cells) | EC50 (MDA-MB-231 cells) [nM] | MDA-MB 231 Cell Prolif. 120 hr YMin (%) (MDA-MB-231 cells)
COC[C@@H]1CN(Cc2cc(F)c3nc(C4CCCN4C)ncc3c2)C[C@H]1Oc1ccc2c(c1)CN([C@H]1CCC(=O)NC1=O)C2=O (relative stereo) [Example 77, rel-(3S)-3-(5-{[(3S,4S)-1-{[8-fluoro-2-(1-methylpyrrolidin-2-yl)quinazolin-6-yl]methyl}-4-(methoxymethyl)pyrrolidin-3-yl]oxy}-1-oxo-2,3-dihydro-1H-isoindol-2-yl)piperidine-2,6-dione] | 23 | 25.5 | 43 | 13.1 | 332 | 80.1
CC(C)C[C@@H]1CN(Cc2cc(F)c3nc(C4CCOCC4)ccc3c2)C[C@H]1Oc1ccc2c(c1)CN([C@H]1CCC(=O)NC1=O)C2=O (relative stereo) [Example 130, (3S)-3-(5-{[(3S*,4R*)-1-{[8-fluoro-2-(oxan-4-yl)quinolin-6-yl]methyl}-4-(2-methylpropyl)pyrrolidin-3-yl]oxy}-1-oxo-2,3-dihydro-1H-isoindol-2-yl)piperidine-2,6-dione] | 6 | 78.0 | 1 | 94.4 | 5960 | 84.1
Cc1cc([C@H]2CN(Cc3cc(F)c4nc(C5CCOCC5)ccc4c3)C[C@@H]2Oc2ccc3c(c2)CN([C@H]2CCC(=O)NC2=O)C3=O)cc(C)n1 (relative stereo) [Example 147, (S)-3-(5-(((3R*,4S*)-4-(2,6-dimethylpyridin-4-yl)-1-((8-fluoro-2-(tetrahydro-2H-pyran-4-yl)quinolin-6-yl)methyl)pyrrolidin-3-yl)oxy)-1-oxoisoindolin-2-yl)piperidine-2,6-dione] |  | 93.2 | 308 | 92.2 | 443 | 79.7
Cc1cc([C@@H]2CN(Cc3cc(F)c4nc(C5CCOCC5)ccc4c3)C[C@H]2Oc2ccc3c(c2)CN([C@H]2CCC(=O)NC2=O)C3=O)cc(C)n1 (relative stereo) [Example 127, (3S)-3-(5-{[(3S*,4R*)-4-(2,6-dimethylpyridin-4-yl)-1-{[8-fluoro-2-(oxan-4-yl)quinolin-6-yl]methyl}pyrrolidin-3-yl]oxy}-1-oxo-2,3-dihydro-1H-isoindol-2-yl)piperidine-2,6-dione] | 3 | 20.2 | 12 | 9.8 | 278 | 40.1
COC(C)(C)[C@@H]1CN(Cc2ccc3nc(C4CCOCC4)ccc3c2)C[C@H]1Oc1ccc2c(c1)CN([C@H]1CCC(=O)NC1=O)C2=O (racemic) [Example 138, (3S)-3-(5-((4-(2-methoxypropan-2-yl)-1-((2-(tetrahydro-2H-pyran-4-yl)quinolin-6-yl)methyl)pyrrolidin-3-yl)oxy)-1-oxoisoindolin-2-yl)piperidine-2,6-dione] | 3 | 48.1 | 348 | 80.2 | ≥ 10300 | 94.6
O=C1CC[C@H](N2Cc3cc(O[C@@H]4CN(Cc5ccc6nc(N7C[C@H]8CCO[C@H]8C7)ccc6c5)CC4(F)F)ccc3C2=O)C(=O)N1 (single isomer, unassigned) [Example 6, (S)-3-(5-(((R)-4,4-difluoro-1-((2-((3aR*,6aR*)-hexahydro-5H-furo[2,3-c]pyrrol-5-yl)quinolin-6-yl)methyl)pyrrolidin-3-yl)oxy)-1-oxoisoindolin-2-yl)piperidine-2,6-dione] | 2 | 27.4 | 5 | 11.8 | 63 | 62.4
COC[C@@H]1CN(Cc2cnc3nc(C4CCOCC4)ccc3c2)C[C@H]1Oc1ccc2c(c1)CN([C@H]1CCC(=O)NC1=O)C2=O [Example 129, (3S)-3-(5-{[(3S,4S)-4-(methoxymethyl)-1-{[7-(oxan-4-yl)-1,8-naphthyridin-3-yl]methyl}pyrrolidin-3-yl]oxy}-1-oxo-2,3-dihydro-1H-isoindol-2-yl)piperidine-2,6-dione] | 2 | 26.0 | 10 | 10.6 | 319 | 80.6
O=C1CC[C@H](N2Cc3cc(O[C@H]4CCN(Cc5ccc6nc([C@H]7CCO[C@]8(CCOC8)C7)ccc6c5)C4)ccc3C2=O)C(=O)N1 (relative stereo) [Example 23, rel-(3S)-3-(5-(((3S)-1-((2-(2,6-dioxaspiro[4.5]decan-9-yl)quinolin-6-yl)methyl)pyrrolidin-3-yl)oxy)-1-oxoisoindolin-2-yl)piperidine-2,6-dione] | 2 | 33.5 | 6 | 11.8 | 82 | 56.9
COC[C@@H]1CN(Cc2ccc3nc(N4C[C@@H]5CCO[C@@H]5C4)ccc3c2)C[C@H]1Oc1ccc2c(c1)CN([C@H]1CCC(=O)NC1=O)C2=O (single isomer, unassigned) [Example 16, (S)-3-(5-(((3S,4S)-1-((2-((3aS*,6aS*)-hexahydro-5H-furo[2,3-c]pyrrol-5-yl)quinolin-6-yl)methyl)-4-(methoxymethyl)pyrrolidin-3-yl)oxy)-1-oxoisoindolin-2-yl)piperidine-2,6-dione] |  | 29.6 | 2 | 10.8 | 48 | 43.7
COC[C@@H]1CN(Cc2cc(F)c3nc(C4CCN(C(C)=O)C4)ccc3c2)C[C@H]1Oc1ccc2c(c1)CN([C@H]1CCC(=O)NC1=O)C2=O (relative stereo) [Example 67, rel-(3S)-3-(5-(((3S,4S)-1-((2-(1-acetylpyrrolidin-3-yl)-8-fluoroquinolin-6-yl)methyl)-4-(methoxymethyl)pyrrolidin-3-yl)oxy)-1-oxoisoindolin-2-yl)piperidine-2,6-dione] | 1 | 29.6 | 1 | 12.3 | 28 | 37.7
COC[C@@H]1CN(Cc2cc(F)c3nc(C(C)(C)O)ncc3c2)C[C@H]1Oc1ccc2c(c1)CN([C@H]1CCC(=O)NC1=O)C2=O [Example 41, (3S)-3-(5-{[(3S,4S)-1-{[8-fluoro-2-(2-hydroxypropan-2-yl)quinazolin-6-yl]methyl}-4-(methoxymethyl)pyrrolidin-3-yl]oxy}-1-oxo-2,3-dihydro-1H-isoindol-2-yl)piperidine-2,6-dione] | 22 | 30.3 | 10 | 12.5 | 151 | 39.1
COC[C@@H]1CN(Cc2cc(F)c3c(ccn3C(=O)C3CCOCC3)c2)C[C@H]1Oc1ccc2c(c1)CN([C@H]1CCC(=O)NC1=O)C2=O [Example 24, (3S)-3-(5-{[(3S,4S)-1-{[7-fluoro-1-(oxane-4-carbonyl)-1H-indol-5-yl]methyl}-4-(methoxymethyl)pyrrolidin-3-yl]oxy}-1-oxo-2,3-dihydro-1H-isoindol-2-yl)piperidine-2,6-dione] | 5 | 37.7 | 50 | 49.1 | 68 | 87.7
